Measured values from patent publication US12227520B2 (priority 2019, dated 2025).
Like-named read-outs stand apart in the source and are kept apart here.

What was measured:
[1] = tested on: pLai RLuc reporter virus; test: microbe, parasite or virus in culture; format: cell-based, HIV; settings: Human immunodeficiency virus 1, 72 h
Outline: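 Read-out is Renilla luciferase after 72 h at 37 °C in MT-4 cells infected 2 h beforehand with pLai RLuc reporter virus; compounds diluted 1:3.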

[2] = Cytotoxicity assay in MT-4 cells; format: cell-based, human; settings: human, uninfected MT-4 cells, 5 days incubation; read-out: CC50
Outline: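 For cytotoxicity, uninfected MT-4 cells were incubated with compounds 5 days at 37 °C, with 10 μM puromycin marking base cytotoxicity. Parallel plates used HIV-1 IIIB-infected (1:250 stock dilution) or mock cells with 5 μM AZT and no-drug controls. Read-out: CellTiter-Glo chemiluminescence.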

[3] = tested on: HIV-1 (IIIB); test: Antiviral assay in MT-4 cells (HIV MT-4 antiviral assay); format: cell-based; settings: Human immunodeficiency virus 1, IIIB, MT4, 120 h, HIV-1 (IIIB) in MT-4 cells, 5 days incubation; read-out: EC50
Outline: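 Read-out is CellTiter-Glo chemiluminescence after 5-day culture at 37° C, giving protection of MT-4 cells from HIV-1 IIIB cytopathicity. Compounds tested in 1:3 dilution series in complete RPMI; controls were no drug, mock infection and 5 μM AZT.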

[4] = read-out: Antiviral Serum Shift RLuc 50% HS, HS/CCM (RPMI media, 10% FBS, 50% HS, 1% P/S), 72-h incubation
[5] = read-out: Antiviral Serum Shift RLuc CCM, CCM (RPMI media, 10% FBS, 1% P/S), 72-h incubation

Structure (SMILES)	EC50 [1, 4] [nM]	EC50 [1, 5] [nM]	CC50 at 5 days [2] [µM]	EC50 [3] [nM]
O=C(NCc1ccc(F)cc1F)c1cn2c(c(O)c1=O)C(=O)N1CCCCC[C@@H]2C1 [Example 5-1, (8R)-N-(2,4-difluorobenzyl)-13-hydroxy-1,12-dioxo-1,3,4,5,6,7,8,12-octahydro-2,8-methanopyrido[1,2-a][1,4]diazecine-11-carboxamide]	1.24	0.235	11.1	2
C[C@H]1C=C[C@H](C)N2C[C@H]1n1cc(C(=O)NCc3c(F)cc(F)cc3F)c(=O)c(O)c1C2=O [Example 183, (3S,6S,7S)-12-hydroxy-3,6-dimethyl-1,11-dioxo-N-(2,4,6-trifluorobenzyl)-1,6,7,11-tetrahydro-3H-2,7-methanopyrido[1,2-a][1,4]diazonine-10-carboxamide]	5.71	0.262	10.5	0.869
O=C(NCc1ccc(F)cc1F)c1cn2c(c(O)c1=O)C(=O)N1CCC=C[C@H]2C1 [Example 169, (7S)—N-(2,4-difluorobenzyl)-12-hydroxy-1,11-dioxo-1,4,7,11-tetrahydro-3H-2,7-methanopyrido[1,2-a][1,4]diazonine-10-carboxamide]	2.89	0.322	11.8	1.4
C[C@@H]1CC[C@@H](C)N2C[C@H]1n1cc(C(=O)NCc3c(F)cc(F)cc3F)c(=O)c(O)c1C2=O [Example 151-2, (3R,6R,7S)-12-hydroxy-3,6-dimethyl-1,11-dioxo-N-(2,4,6-trifluorobenzyl)-1,4,5,6,7,11-hexahydro-3H-2,7-methanopyrido[1,2-a][1,4]diazonine-10-carboxamide]	7.22	0.44	7.2	1.75
C[C@@H]1C=C[C@H](CF)N2C[C@H]1n1cc(C(=O)NCc3ccc(F)cc3F)c(=O)c(O)c1C2=O [Example 192, (3R,6R,7S)—N-(2,4-difluorobenzyl)-3-(fluoromethyl)-12-hydroxy-6-methyl-1,11-dioxo-1,6,7,11-tetrahydro-3H-2,7-methanopyrido[1,2-a][1,4]diazonine-10-carboxamide]	6.57	0.252	5.57	0.913
O=C(NCc1c(F)cc(F)cc1F)c1cn2c(c(O)c1=O)C(=O)N1CCC=C[C@@H]2C1 [Example 109-1, (7R)-12-hydroxy-1,11-dioxo-N-(2,4,6-trifluorobenzyl)-1,4,7,11-tetrahydro-3H-2,7-methanopyrido[1,2-a][1,4]diazonine-10-carboxamide]	50.8	0.527	11.3	1.81
O=C(NCc1c(F)cc(F)cc1F)c1cn2c(c(O)c1=O)C(=O)N1CC[C@@H](F)C[C@H]2C1 [Example 73-1, (5R,7S)-5-fluoro-12-hydroxy-1,11-dioxo-N-(2,4,6-trifluorobenzyl)-1,4,5,6,7,11-hexahydro-3H-2,7-methanopyrido[1,2-a][1,4]diazonine-10-carboxamide]	0.897	0.715	> 50	5.2
O=C(NCc1c(F)cc(F)cc1F)c1cn2c(c(O)c1=O)C(=O)N1CC[C@H](O)CC[C@H]2C1 [Example 83-2, (5R,8S)-5,13-dihydroxy-1,12-dioxo-N-(2,4,6-trifluorobenzyl)-1,3,4,5,6,7,8,12-octahydro-2,8-methanopyrido[1,2-a][1,4]diazecine-11-carboxamide]	2.08	2.15	> 50	12.8
O=C(NCc1ccc(F)cc1F)c1cn2c(c(O)c1=O)C(=O)N1CCc3cc(F)c(F)cc3[C@H]2C1 (single isomer, unassigned) [Example 111-1]	7.12	0.447	5.91	2.01
CC[C@]1(OC)CCCN2C[C@H]1n1cc(C(=O)NCc3c(F)cc(F)cc3F)c(=O)c(O)c1C2=O [Example 100, (6S,7R)-6-ethyl-12-hydroxy-6-methoxy-1,11-dioxo-N-(2,4,6-trifluorobenzyl)-1,4,5,6,7,11-hexahydro-3H-2,7-methanopyrido[1,2-a][1,4]diazonine-10-carboxamide]	1.77	0.631	9.44	1.58
O=C(NCc1c(F)cc(F)cc1F)c1cn2c(c(O)c1=O)C(=O)N1CCC(F)(F)C[C@H]2C1 [Example 114, (7S)-5,5-difluoro-12-hydroxy-1,11-dioxo-N-(2,4,6-trifluorobenzyl)-1,4,5,6,7,11-hexahydro-3H-2,7-methanopyrido[1,2-a][1,4]diazonine-10-carboxamide]	1.04	0.717	30.5	2.27
C[C@@]1(F)CCCN2C[C@@H]1n1cc(C(=O)NCc3ccc(F)cc3F)c(=O)c(O)c1C2=O [Example 60-3, (6R, 7S)—N-(2,4-difluorobenzyl)-6-fluoro-12-hydroxy-6-methyl-1,11-dioxo-1,4,5,6,7,11-hexahydro-3H-2,7-methanopyrido[1,2-a][1,4]diazonine-10-carboxamide]	14.8	0.376	14.8	2.23
O=C(NCc1c(F)cc(F)cc1F)c1cn2c(c(O)c1=O)C(=O)N1Cc3cc(F)c(F)cc3C[C@H]2C1 [Example 88, (6S)-9,10-difluoro-1-hydroxy-2,14-dioxo-N-(2,4,6-trifluorobenzyl)-2,7,12,14-tetrahydro-6H-6,13-methanobenzo[f]pyrido[1,2-a][1,4]diazonine-3-carboxamide]	1.62	0.269	> 23.4	1.61
O=C(NCc1c(F)cc(F)c(F)c1F)c1cn2c(c(O)c1=O)C(=O)N1CCCC[C@H]2C1 [Example 125, (7S)-12-hydroxy-1,11-dioxo-N-(2,3,4,6-tetrafluorobenzyl)-1,4,5,6,7,11-hexahydro-3H-2,7-methanopyrido[1,2-a][1,4]diazonine-10-carboxamide]	1.97	0.328	10.2	2.95
O=C(NCc1c(F)cc(F)cc1F)c1cn2c(c(O)c1=O)C(=O)N1C[C@@H]2CCC[C@@H]1C(F)F [Example 131, (3R, 7S)-3-(difluoromethyl)-12-hydroxy-1,11-dioxo-N-(2,4,6-trifluorobenzyl)-1,4,5,6,7,11-hexahydro-3H-2,7-methanopyrido[1,2-a][1,4]diazonine-10-carboxamide]	11	0.25	10.2	1.68
O=C(NCc1ccc(F)cc1F)c1cn2c(c(O)c1=O)C(=O)N1C[C@@H]2CCC[C@@H]1CF [Example 165, (3R,7S)—N-(2,4-difluorobenzyl)-3-(fluoromethyl)-12-hydroxy-1,11-dioxo-1,4,5,6,7,11-hexahydro-3H-2,7-methanopyrido[1,2-a][1,4]diazonine-10-carboxamide]	7.33	0.351	9.61	1.1
O=C(NCc1ccc(F)cc1F)c1cn2c(c(O)c1=O)C(=O)N1CCCCC[C@H]2C1 [Example 5-2, (8S)—N-(2,4-difluorobenzyl)-13-hydroxy-1,12-dioxo-1,3,4,5,6,7,8,12-octahydro-2,8-methanopyrido[1,2-a][1,4]diazecine-11-carboxamide]	142	0.72	19.5	2.9
O=C(NCc1c(F)cc(F)cc1F)c1cn2c(c(O)c1=O)C(=O)N1CC[C@@H](F)C[C@@H]2C1 [Example 73-2, (5R, 7R)-5-fluoro-12-hydroxy-1,11-dioxo-N-(2,4,6-trifluorobenzyl)-1,4,5,6,7,11-hexahydro-3H-2,7-methanopyrido[1,2-a][1,4]diazonine-10-carboxamide]	0.919	0.283	23.1	1.82
O=C(NCc1ccc(F)cc1F)c1cn2c(c(O)c1=O)C(=O)N1C[C@@H](F)CC[C@@H]2C1 (single isomer, unassigned) [Example 53-3]	75.2	0.223	11.2	1.94
O=C(NCc1c(F)cc(F)cc1F)c1cn2c(c(O)c1=O)C(=O)N1CCc3cc(F)c(F)cc3[C@@H]2C1 (single isomer, unassigned) [Example 110-2]	53.7	4.81	6.33	30.5
C[C@]12CC=CCN(C1)C(=O)c1c(O)c(=O)c(C(=O)NCc3c(F)cc(F)cc3F)cn12 [Example 156, (7S)-12-hydroxy-7-methyl-1,11-dioxo-N-(2,4,6-trifluorobenzyl)-1,6,7,11-tetrahydro-3H-2,7-methanopyrido[1,2-a][1,4]diazonine-10-carboxamide]	41.3	0.187	13.7	1.75
C[C@@H]1CC[C@H](C)N2C[C@H]1n1cc(C(=O)NCc3c(F)cc(F)cc3F)c(=O)c(O)c1C2=O [Example 174, (3S,6R,7S)-12-hydroxy-3,6-dimethyl-1,11-dioxo-N-(2,4,6-trifluorobenzyl)-1,4,5,6,7,11-hexahydro-3H-2,7-methanopyrido[1,2-a][1,4]diazonine-10-carboxamide]	58.4	0.346	11.4	1.26
